Among the test systems are CAKI-1 renal; HCC-2998 colon; HOP-92 NSCLC; IGROV1 ovarian; NCI-H23 lung; PC-3 prostate; SW-620 colon; SK-MEL-5 melanoma; TK-10 renal; LOX IMVI melanoma.
What all share (assay): NCI anticancer screen, dose series, 48 h

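The compound was tested at five concentrations on cells cultured in 96-well plates, with a 48-hour exposure period. GI50: concentration for 50% inhibition of growth. TGI: total growth inhibition.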

For the molecule `CCC(C)C1NC(=O)c2nc(oc2-c2ccccc2)-c2csc(n2)-c2csc(n2)-c2nc(oc2C)-c2coc(n2)CNC(=O)C(C(C)CC)NC1=O` (stereo not given), the GI50 with CAKI-1 renal is 0.0371 µM; in the experiment with HCC-2998 colon, 54.3 nM; with HOP-92 NSCLC, 0.0198 µM; in the experiment on IGROV1 ovarian it was 0.0263 µM; in the experiment with NCI-H23 lung, 0.04 µM; with PC-3 prostate, less than 0.0137 µM. In addition, the TGI in the experiment with CAKI-1 renal was 0.151 µM; with HCC-2998 colon, 249 nM; in the experiment with HOP-92 NSCLC, 0.134 µM; in the experiment on IGROV1 ovarian it was 0.122 µM; in the experiment with NCI-H23 lung, 0.155 µM; in the experiment with PC-3 prostate, 0.116 µM. In the experiment on SW-620 colon, the TGI stood at 0.0324 µM.

Turning to `C[C@@H]1CC[C@H]2C(COCC3=C(C(F)(F)F)O[C@@H]4O[C@@]5(C)CC[C@H]6[C@H](C)CC[C@@H]3[C@@]46OO5)=C(C(F)(F)F)O[C@@H]3O[C@@]4(C)CC[C@@H]1[C@]32OO4`, the GI50 in the experiment on CAKI-1 renal was 0.205 µM; in the experiment on NCI-H23 lung it was less than 0.01 µM; in the experiment with PC-3 prostate, less than 0.01 µM; with SK-MEL-5 melanoma, 0.0109 µM; with SW-620 colon, less than 0.01 µM; in the experiment with TK-10 renal it was 0.143 µM. For the same molecule, the TGI with CAKI-1 renal, with IGROV1 ovarian, with NCI-H23 lung, in the experiment on PC-3 prostate, in the experiment with SK-MEL-5 melanoma and in the experiment on SW-620 colon was greater than 100 µM in each case. The molecule also yielded a TGI in the experiment on TK-10 renal greater than 100 µM.

As for `N#Cc1c(-c2cccs2)c2c(=S)[nH]c(=S)[nH]c2[nH]c1=S`, the GI50 in the experiment with CAKI-1 renal is 31.4 µM; in the experiment on HOP-92 NSCLC, 89.4 µM; in the experiment on IGROV1 ovarian, 71.3 µM; in the experiment with LOX IMVI melanoma it was 18.2 µM; in the experiment with PC-3 prostate it was 30.8 µM; in the experiment on SK-MEL-5 melanoma, 17.2 µM. Moreover, the GI50 in the experiment with SW-620 colon was 32.8 µM; in the experiment with TK-10 renal, 90.7 µM. Besides, the TGI in the experiment on CAKI-1 renal is greater than 100 µM; with HOP-92 NSCLC it was greater than 100 µM; in the experiment on IGROV1 ovarian, greater than 100 µM; in the experiment on LOX IMVI melanoma, 39.8 µM; in the experiment with PC-3 prostate, greater than 100 µM; in the experiment with SK-MEL-5 melanoma, 33.9 µM. For the same molecule, the TGI was 81 µM in the experiment with SW-620 colon and greater than 100 µM in the experiment with TK-10 renal.

For the molecule `COc1ccc(-c2nn(-c3cccc(Cl)c3)cc2C2CC(c3ccccc3)=NN2C(C)=O)cc1` (stereo not given), the GI50 in the experiment with CAKI-1 renal was 6.54 µM; with HCC-2998 colon it was greater than 100000 nM; in the experiment with IGROV1 ovarian it was 13.7 µM; in the experiment with LOX IMVI melanoma, 11 µM; in the experiment on NCI-H23 lung it was 10.1 µM; with PC-3 prostate, 6.8 µM. The values for the GI50 with SK-MEL-5 melanoma, with SW-620 colon and with TK-10 renal were 30.3 µM, greater than 100 µM and 5 µM, respectively. For the same molecule, the TGI is greater than 100 µM with CAKI-1 renal; greater than 100000 nM in the experiment with HCC-2998 colon; greater than 100 µM in the experiment on IGROV1 ovarian; greater than 100 µM in the experiment on LOX IMVI melanoma; greater than 100 µM with NCI-H23 lung; greater than 100 µM in the experiment on PC-3 prostate. For the same molecule, the TGI is greater than 100 µM with SK-MEL-5 melanoma, greater than 100 µM in the experiment on SW-620 colon and 21.6 µM in the experiment on TK-10 renal.

In the case of `CC(CO)(CO)N=Cc1cc(I)cc(I)c1O`, the TGI in the experiment with CAKI-1 renal is 68.2 µM; in the experiment on HOP-92 NSCLC, 32.9 µM; in the experiment with IGROV1 ovarian it was 33.3 µM; in the experiment on LOX IMVI melanoma, 24.2 µM; with NCI-H23 lung, 58.7 µM; with PC-3 prostate, 32.1 µM. Moreover, the TGI in the experiment on SK-MEL-5 melanoma was 28.5 µM; in the experiment with SW-620 colon, 53 µM; with TK-10 renal, 84.2 µM.

With `O=C(/C=C/c1ccc(Cl)cc1)c1ccc(Cl)cc1Cl`, the GI50 in the experiment with CAKI-1 renal was 8.22 µM; in the experiment with HOP-92 NSCLC, 9.39 µM; with IGROV1 ovarian, 0.987 µM; in the experiment with LOX IMVI melanoma, 1.15 µM; with NCI-H23 lung it was 4.55 µM; in the experiment on PC-3 prostate, 11.2 µM. Moreover, the GI50 in the experiment with SK-MEL-5 melanoma is 4.89 µM; in the experiment with SW-620 colon it was 1.88 µM; in the experiment on TK-10 renal it was 7.42 µM. Moreover, the TGI in the experiment with CAKI-1 renal was 15.7 µM; in the experiment with HOP-92 NSCLC, 19.4 µM; in the experiment with IGROV1 ovarian, 14.6 µM; in the experiment on LOX IMVI melanoma it was 5.62 µM; in the experiment with NCI-H23 lung, 12.4 µM; with PC-3 prostate it was 31.7 µM. Further, the values for the TGI in the experiment on SK-MEL-5 melanoma, in the experiment with SW-620 colon and in the experiment on TK-10 renal were 13.1 µM, 6.31 µM and 14 µM, respectively.

As to `CC(C)(C)OC(=O)n1cc(CNC(=S)Nc2ccccc2)c2ccccc21`, the GI50 was 4.68 µM in the experiment with CAKI-1 renal; 8.94 µM in the experiment with HOP-92 NSCLC; 27.6 µM in the experiment with IGROV1 ovarian; 11.1 µM in the experiment on LOX IMVI melanoma; 10.7 µM in the experiment on NCI-H23 lung; 10.5 µM with PC-3 prostate. Besides, the values for the GI50 with SK-MEL-5 melanoma, with SW-620 colon and in the experiment on TK-10 renal were 4.51 µM, 13.1 µM and 14.6 µM, respectively. The TGI in the experiment with CAKI-1 renal is 23.2 µM; in the experiment on HOP-92 NSCLC, 25.7 µM; with IGROV1 ovarian it was greater than 100 µM; with LOX IMVI melanoma, 23 µM; with NCI-H23 lung it was 24.4 µM; in the experiment on PC-3 prostate, 23 µM. The TGI in the experiment on SK-MEL-5 melanoma came to 16.6 µM; in the experiment with SW-620 colon it was 26.2 µM; with TK-10 renal, 53.9 µM.

The record behind these values is PubChem BioAssay (NCI).
